{"source": "patent US20140057311A1", "about": "“Device For High Throughput Investigations Of Multi-Cellular Interactions” (priority 2010, published 2014)", "test_system": "MDA-MB 231 human breast carcinoma cells", "assay": "Tumor cell migration direction under interstitial flow in 3D collagen I gel", "assay_type": "cell-based", "conditions": "Src kinase inhibited with PP2", "description": "Cell culture system design and verification of interstitial flow field. A microfluidic cell culture system to culture breast cancer cells (MDA-MB 231) in a 3D collagen I matrix and to subject these cells to a controlled level of interstitial flow was employed. The system consists of two channels separated by a region containing single cells suspended in collagen I gel (FIG. 16A). By applying a hydrostatic pressure gradient across the gel region, a consistent flow field is generated. FEM software was used to solve Brinkman's equation for flow through porous medium for our system geometry (FIG. 16B). […] From the bead tracking data, the hydraulic permeability of 2 mg/ml collagen I gel was determined to be 1.55×10-13 m2, similar to previously published values.\nInterstitial flow induced a directional bias in cellular migration. […] To quantify the migration direction of cell populations, two metrics are presented. […] To determine directional bias of migration along streamlines, a “directional migration metric” was computed that scored cells with a +1 if they migrated in the direction of flow and a −1 if they migrated against the flow (FIG. 17E). […]\nCells were incubated overnight at 37° C. […] Devices were allowed to reach thermal equilibrium at 37° C. before imaging (see Supplementary Methods in SI Appendix for details on imaging and data quantification). […]"}
{"smiles": "CC(C)(C)n1nc(-c2ccc(Cl)cc2)c2c(N)ncnc21", "note": "[PP2]", "values": [{"measurement": "direction of cell migration under interstitial flow", "value": "cells migrated randomly, with no biased migration upstream or downstream"}]}
